The text below walks through data of patent publication US12582624B2, “Co-crystal of gabapentin, ketoprofen and lysine, pharmaceutical compositions and their medical use” (DOMPÉ FARMACEUTICI S.P.A., priority 2020, dated 2026).

One may read the pKa as the negative logarithm of the acid dissociation constant.

For data set [1] the following is noted: cited from earlier work.
The subject of data set [2] is carrageenan-induced rat paw edema. Nature of the data set: Carrageenan-induced rat paw edema test. The class given is in vivo. Here is the method:
Inflammatory pain in rats induced by carrageenan intraplantar injection Male Wistar rats (270-280 g) (Envigo, Italy), were housed 2-3 per cage under controlled illumination (12:12 h light:dark cycle; light on 06.00 h) and standard environmental conditions (room temperature 22±1° C., humidity 60±10%) for at least 1 week before experimental use. Rat chow and tap water were available ad libitum. The procedures were approved by the Animal Ethics Committee of University of Campania “Luigi Vanvitelli”. Animal care was in compliance with Italian Legislative Decree (D.L. 116/92) and European Commission Directive (O.J. of E.C. L358/1, 18/12/86) regulations on the protection of laboratory animals. All efforts were made to minimize animal suffering and the number of animals used.
Peripheral inflammatory pain was induced in the left hind paw of each animal by a single intraplantar injection of 1% A-carrageenan (100 μl for each rat in 0.9% NaCl). […] Edema was expressed as the mean increase in paw volume (ml) relative to control animals. The percentage inhibition of edema was calculated by the following equation: % inhibition of edema=(Vc−Vt/Vc)×100, where Vc is the edema volume in the control group and Vt is the edema volume in treated group.
(In the carrageenan paw model, swelling and tenderness develop within hours.)

For data set [3] the following is noted: in vivo; cited from earlier work.
The nature of a further data set: in vivo. As to conditions: male, Sprague Dawley, rat, po.
The conditions of data set [4]: cited from earlier work. This is another data set of the same source.

From the text for in vivo: Aim of the study was the determination of the brain penetration of Gabapentin in KLS-Gabapentin Co-crystal compared to the physical mixture of KLS and so Gabapentin and Gabapentin alone after administration in capsules in the rats.
Sprague Dawley male rat (body weights 310 gr at the time of the treatment) were used in this study. The animals were originally supplied by Harlan, Italy. Once receipt from the supplier, the animals were subjected to health examinations and acceptance. The animals were housed, in a group of three, in cages suitable for the species and were routinely kept in the following environment except for short periods of time where experimental procedures dictated otherwise. The animals were acclimatized to local housing conditions for approximately 5 days.
The experimental protocol consisted in the blood and brain tissue sampling on the animals according to the following Tables 12 and 13 and analysis of samples as described below.
Stock solutions of Ketoprofen and Gabapentin were prepared at 1 mg/mL in MeOH and a mix stock solution was prepared by dilution of the two mentioned before to reach a final concentration of 100 μg/mL of each analyte. Stock solutions of DF1681Y and Gabapentin Impurity A were prepared respectively at 2 mg/mL and 1 mg/mL in MeOH. A mixture of the two was prepared in ACN with a final so concentration of 5000 and 500 ng/mL respectively (mix IS). […]

Regarding `NCC1(CC(=O)O)CCCCC1` [Gabapentin], the “Time to utmost level in plasma” value in data set [1] (after oral administration) is 3 to 4 h. Also, the Plasma protein binding result in data set [1] (in vivo) is on record as “does not attach to plasma proteins”. Moreover, in data set [1] (renal excretion), the Excretion half-life result is given as “roughly 6 hours”. For the same compound, in data set [2] (Carrageenan inflammatory rat model), the “Activity on inflammatory pain” value is “little active”. Besides, in data set [2] (FIGS. 13 and 15, oral, rat), the “Effect on carrageenan-evoked edema” value is on record as “less effective”. Further, in data set [3], the “Side effect: ataxia” value was 13%, the “Side effect: dizziness” value is recorded as 18%, the “Side effect: fatigue” value is reported as 11% and the “Side effect: somnolence” value is 20%. Further, the Kp at 2 h in the data set “in vivo” came out at 0.378.

With `CC(C(=O)O)c1cccc(C(=O)c2ccccc2)c1` (racemic) [Ketoprofen, (RS)-2-(3-benzoylphenyl)-propionic acid], the pKa in data set [4] was 4.08.
